Results reported in ChEMBL document CHEMBL1201862, “PubChem BioAssay data set” (2004).
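Five compound concentrations were applied to cells in 96-well plates for 48 hours; endpoints were derived by simple linear interpolation of the resulting dose-response curve. GI50 marks 50% less growth.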 Activity calls are given as the source filed them. Cut-off read from the data, not from the text of the source: active = GI50 up to about 1.1 µM and inactive = higher.

Assays:
Experiment in all cases: NCI-60 cell line screen, 48 h
786-0 = system: 786-0
A498 = system: A498
A549 = system: A549
ACHN = system: ACHN
BT-549 = system: BT-549
CAKI-1 = system: CAKI-1
CCRF-CEM = system: CCRF-CEM
COLO 205 = system: COLO 205
DU-145 = system: DU-145
EKVX = system: EKVX
HCC 2998 = system: HCC 2998
HCT-116 = system: HCT-116
HCT-15 = system: HCT-15
HL-60 = system: HL-60
HOP-62 = system: HOP-62
HOP-92 = system: HOP-92
HT-29 = system: HT-29
Hs-578T = system: Hs-578T
IGROV-1 = system: IGROV-1
K562 = system: K562
KM12 = system: KM12
LOX IMVI = system: LOX IMVI
M14 = system: M14
MCF7 = system: MCF7
MDA-MB-231 = system: MDA-MB-231
MDA-MB-435 = system: MDA-MB-435
MDA-N = system: MDA-N
MOLT-4 = system: MOLT-4
NCI-H226 = system: NCI-H226
NCI-H23 = system: NCI-H23
NCI-H460 = system: NCI-H460
NCI-H522 = system: NCI-H522
NCI/ADR-RES = system: NCI/ADR-RES
OVCAR-3 = system: OVCAR-3
OVCAR-4 = system: OVCAR-4
OVCAR-5 = system: OVCAR-5
OVCAR-8 = system: OVCAR-8
PC-3 = system: PC-3
RPMI-8226 = system: RPMI-8226
RXF 393 = system: RXF 393
SF-268 = system: SF-268
SF-295 = system: SF-295
SF-539 = system: SF-539
SK-MEL-28 = system: SK-MEL-28
SK-MEL-2 = system: SK-MEL-2
SK-MEL-5 = system: SK-MEL-5
SK-OV-3 = system: SK-OV-3
SN12C = system: SN12C
SNB-19 = system: SNB-19
SNB-75 = system: SNB-75
SR = system: SR
SW-620 = system: SW-620
T47D = system: T47D
TK-10 = system: TK-10
U-251 = system: U-251
UACC-257 = system: UACC-257
UACC-62 = system: UACC-62
UO-31 = system: UO-31
Malme-3M = system: Malme-3M

O=C1C=CC(O)(C#CCO)C=C1
GI50 (786-0): 9.91 µM (inactive)
GI50 (A498): 22.4 µM (inactive)
GI50 (A549): 23.8 µM (inactive)
GI50 (ACHN): 13.2 µM (inactive)
GI50 (BT-549): 12 µM (inactive)
GI50 (CAKI-1): 4.02 µM (inactive)
GI50 (CCRF-CEM): 11.6 µM (inactive)
GI50 (COLO 205): 6.85 µM (inactive)
GI50 (DU-145): 16 µM (inactive)
GI50 (EKVX): 18.4 µM (inactive)
GI50 (HCC 2998): 17.5 µM (inactive)
GI50 (HCT-116): 15.8 µM (inactive)
GI50 (HCT-15): 2.69 µM
GI50 (HL-60): 3.17 µM (inactive)
GI50 (HOP-62): 30.5 µM (inactive)
GI50 (HOP-92): 2.59 µM (inactive)
GI50 (HT-29): 14.3 µM (inactive)
GI50 (Hs-578T): 29.2 µM (inactive)
GI50 (IGROV-1): 13 µM (inactive)
GI50 (K562): 2.92 µM (inactive)
GI50 (KM12): 17.5 µM (inactive)
GI50 (LOX IMVI): 10.5 µM (inactive)
GI50 (M14): 19.5 µM (inactive)
GI50 (MCF7): 4.33 µM (inactive)
GI50 (MDA-MB-231): 18.7 µM (inactive)
GI50 (MDA-MB-435): 12.4 µM (inactive)
GI50 (MDA-N): 8.57 µM (inactive)
GI50 (MOLT-4): 10.3 µM (inactive)
GI50 (NCI-H226): 13.4 µM (inactive)
GI50 (NCI-H23): 16.9 µM (inactive)
GI50 (NCI-H460): 21.2 µM (inactive)
GI50 (NCI-H522): 1.95 µM (inactive)
GI50 (NCI/ADR-RES): 6.73 µM (inactive)
GI50 (OVCAR-3): 17 µM (inactive)
GI50 (OVCAR-4): 11.9 µM (inactive)
GI50 (OVCAR-5): 12.1 µM (inactive)
GI50 (OVCAR-8): 13.3 µM (inactive)
GI50 (PC-3): 16.9 µM (inactive)
GI50 (RPMI-8226): 3.74 µM (inactive)
GI50 (RXF 393): 4.02 µM (inactive)
GI50 (SF-268): 17.6 µM (inactive)
GI50 (SF-295): 39.3 µM (inactive)
GI50 (SF-539): 17 µM (inactive)
GI50 (SK-MEL-28): 12.9 µM (inactive)
GI50 (SK-MEL-2): 17.4 µM (inactive)
GI50 (SK-MEL-5): 24.3 µM (inactive)
GI50 (SK-OV-3): 58.1 µM (inactive)
GI50 (SN12C): 15.9 µM (inactive)
GI50 (SNB-19): 22 µM (inactive)
GI50 (SNB-75): 21.3 µM (inactive)
GI50 (SR): 2.98 µM (inactive)
GI50 (SW-620): 4.62 µM (inactive)
GI50 (T47D): 15.2 µM (inactive)
GI50 (TK-10): 13.1 µM (inactive)
GI50 (U-251): 11.6 µM (inactive)
GI50 (UACC-257): 14.6 µM (inactive)
GI50 (UACC-62): 15.6 µM (inactive)
GI50 (UO-31): 13.5 µM (inactive)

Cc1cc(S(=O)(=O)NC2=Nc3ccc(Cl)cc3C(c3ccccc3)N2)c(S)cc1Cl (stereo unspecified)
GI50 (786-0): > 100 µM (inactive)
GI50 (A498): > 100 µM (inactive)
GI50 (A549): 17.8 µM (inactive)
GI50 (ACHN): > 100 µM (inactive)
GI50 (BT-549): > 100 µM (inactive)
GI50 (CAKI-1): > 100 µM (inactive)
GI50 (CCRF-CEM): 57.8 µM (inactive)
GI50 (COLO 205): > 100 µM (inactive)
GI50 (DU-145): > 100 µM (inactive)
GI50 (EKVX): > 100 µM (inactive)
GI50 (HCC 2998): > 100 µM (inactive)
GI50 (HCT-116): 36.8 µM (inactive)
GI50 (HCT-15): 67.1 µM
GI50 (HL-60): > 100 µM (inactive)
GI50 (HOP-62): 81.3 µM (inactive)
GI50 (HOP-92): > 100 µM (inactive)
GI50 (HT-29): > 100 µM (inactive)
GI50 (Hs-578T): > 100 µM (inactive)
GI50 (IGROV-1): > 100 µM (inactive)
GI50 (K562): 85.5 µM (inactive)
GI50 (KM12): 92.9 µM (inactive)
GI50 (LOX IMVI): 47.5 µM (inactive)
GI50 (M14): > 100 µM (inactive)
GI50 (MCF7): > 100 µM (inactive)
GI50 (MDA-MB-231): > 100 µM (inactive)
GI50 (MDA-MB-435): > 100 µM (inactive)
GI50 (MDA-N): > 100 µM (inactive)
GI50 (MOLT-4): 62.5 µM (inactive)
GI50 (Malme-3M): > 100 µM (inactive)
GI50 (NCI-H226): 15.4 µM (inactive)
GI50 (NCI-H23): > 100 µM (inactive)
GI50 (NCI-H460): 8.79 µM (inactive)
GI50 (NCI-H522): > 100 µM (inactive)
GI50 (NCI/ADR-RES): > 100 µM (inactive)
GI50 (OVCAR-3): > 100 µM (inactive)
GI50 (OVCAR-4): 43.6 µM (inactive)
GI50 (OVCAR-5): > 100 µM (inactive)
GI50 (OVCAR-8): > 100 µM (inactive)
GI50 (PC-3): 1.84 µM (inactive)
GI50 (RPMI-8226): 97.1 µM (inactive)
GI50 (RXF 393): > 100 µM (inactive)
GI50 (SF-268): 9.12 µM (inactive)
GI50 (SF-295): 20.9 µM (inactive)
GI50 (SF-539): > 100 µM (inactive)
GI50 (SK-MEL-28): > 100 µM (inactive)
GI50 (SK-MEL-5): > 100 µM (inactive)
GI50 (SK-OV-3): > 100 µM (inactive)
GI50 (SN12C): > 100 µM (inactive)
GI50 (SNB-19): 28.5 µM (inactive)
GI50 (SNB-75): > 100 µM (inactive)
GI50 (SR): 14.3 µM (inactive)
GI50 (SW-620): > 100 µM (inactive)
GI50 (T47D): 9.02 µM (inactive)
GI50 (TK-10): > 100 µM (inactive)
GI50 (U-251): 33.8 µM (inactive)
GI50 (UACC-257): > 100 µM (inactive)
GI50 (UACC-62): > 100 µM (inactive)
GI50 (UO-31): 46 µM (inactive)
